Assay results taken from ChEMBL document CHEMBL1201862, “PubChem BioAssay data set” (2004).
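Protocol summary: plate cells (96-well), add compound at 5 concentrations, incubate 48 h, interpolate endpoints linearly. At the GI50, growth is halved.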 The source made the active and inactive calls. Cut-off read from the data, not from the text of the source: active = GI50 up to about 1.1 µM and inactive = higher.

How the values were obtained:
Assay in all cases: NCI anticancer screen, dose series, 48 h
A498 = system: A498
ACHN = system: ACHN
CAKI-1 = system: CAKI-1
CCRF-CEM = system: CCRF-CEM
HCT-116 = system: HCT-116
IGROV-1 = system: IGROV-1
MCF7 = system: MCF7
MDA-MB-435 = system: MDA-MB-435
NCI-H522 = system: NCI-H522
OVCAR-3 = system: OVCAR-3
PC-3 = system: PC-3
RPMI-8226 = system: RPMI-8226
SF-268 = system: SF-268
SK-MEL-28 = system: SK-MEL-28
SN12C = system: SN12C
SR = system: SR
T47D = system: T47D
UO-31 = system: UO-31
K562 = system: K562
NCI-H23 = system: NCI-H23

SMILES | GI50 (A498) | GI50 (ACHN) | GI50 (CAKI-1) | GI50 (CCRF-CEM) | GI50 (HCT-116) | GI50 (IGROV-1) | GI50 (MCF7) | GI50 (MDA-MB-435) | GI50 (NCI-H522) | GI50 (OVCAR-3) | GI50 (PC-3) | GI50 (RPMI-8226) | GI50 (SF-268) | GI50 (SK-MEL-28) | GI50 (SN12C) | GI50 (SR) | GI50 (T47D) | GI50 (UO-31) | GI50 (K562) | GI50 (NCI-H23)
Nc1ccc(-c2nc3cc(F)ccc3s2)cc1Br | 14.7 µM (inactive) | 0.621 µM (active) | 3.99 µM (inactive) | > 100 µM (inactive) | 0.0552 µM (active) | < 0.01 µM (active) | < 0.0111 µM (active) | > 100 µM (inactive) | > 42.8 µM (inactive) | 0.0964 µM (active) | 26.6 µM (inactive) | > 78.2 µM (inactive) | 42 µM (inactive) | > 100 µM (inactive) | > 73.5 µM (inactive) | < 0.01 µM (active) | 0.038 µM (active) | 37.6 µM (inactive) |  | 
NS(=O)(=O)c1ccc(/N=N/c2nc3nc(O)nc(O)c3[nH]2)cc1 | > 100 µM (inactive) | > 100 µM (inactive) | > 100 µM (inactive) |  | > 100 µM (inactive) | > 100 µM (inactive) | > 100 µM (inactive) | > 100 µM (inactive) | > 100 µM (inactive) | > 100 µM (inactive) | > 100 µM (inactive) | > 100 µM (inactive) | > 100 µM (inactive) | > 100 µM (inactive) | > 100 µM (inactive) | 39.8 µM (inactive) | > 100 µM (inactive) | > 100 µM (inactive) | > 100 µM (inactive) | > 100 µM (inactive)
C[C@@H](NC(=O)Nc1cccc(C(=O)Nc2cc(C(C)(C)C)ccc2C(=O)O)n1)c1ccccc1 | 64.1 µM (inactive) | 35.2 µM (inactive) | 82.2 µM (inactive) |  | 19.9 µM (inactive) | 37.9 µM (inactive) | 16.4 µM (inactive) | 37.3 µM (inactive) | 40.8 µM (inactive) | 21.4 µM (inactive) | 25.1 µM (inactive) | 41.8 µM (inactive) | 46.8 µM (inactive) | 41.4 µM (inactive) | 49.8 µM (inactive) | 28.4 µM (inactive) | 46 µM (inactive) | 40.1 µM (inactive) | 42.5 µM (inactive) | 41.7 µM (inactive)
CC(C)C/N=C(\N)N=C(N)N |  | > 100 µM (inactive) |  |  | > 100 µM (inactive) | > 100 µM (inactive) | > 100 µM (inactive) | > 100 µM (inactive) | > 100 µM (inactive) | > 100 µM (inactive) | > 100 µM (inactive) | > 100 µM (inactive) | > 100 µM (inactive) | > 100 µM (inactive) | > 100 µM (inactive) | > 100 µM (inactive) | > 100 µM (inactive) | > 100 µM (inactive) | > 100 µM (inactive) | > 100 µM (inactive)
CC/C(=N/O)c1ccc(Br)s1 | > 100 µM (inactive) | 92 µM (inactive) | > 100 µM (inactive) | 41.1 µM (inactive) | > 100 µM (inactive) | 55.6 µM (inactive) | > 100 µM (inactive) | > 100 µM (inactive) | > 100 µM (inactive) | > 100 µM (inactive) | > 100 µM (inactive) |  | > 100 µM (inactive) | > 100 µM (inactive) | > 100 µM (inactive) | 40.3 µM (inactive) | 70 µM (inactive) | 58.6 µM (inactive) | > 100 µM (inactive) | > 100 µM (inactive)
Cc1ccc(C(=O)Oc2ccc(/C=C3\CCC/C(=C\c4ccc(OC(=O)c5ccc(C)cc5)cc4)C3=O)cc2)cc1 |  | > 100 µM (inactive) | > 100 µM (inactive) | > 100 µM (inactive) | > 100 µM (inactive) | > 100 µM (inactive) | > 100 µM (inactive) | > 100 µM (inactive) | > 100 µM (inactive) | > 100 µM (inactive) | > 100 µM (inactive) | > 100 µM (inactive) | > 100 µM (inactive) | > 100 µM (inactive) | > 100 µM (inactive) | > 100 µM (inactive) | > 100 µM (inactive) | > 100 µM (inactive) |  | > 100 µM (inactive)
Cc1ccc(S(=O)(=O)NC2=NS(=O)(=O)c3cc(C)c(Cl)cc3S2)cc1 | > 100 µM (inactive) | > 100 µM (inactive) | > 100 µM (inactive) |  | 88.3 µM (inactive) | > 100 µM (inactive) | 85.3 µM (inactive) | > 100 µM (inactive) | 42.3 µM (inactive) | > 100 µM (inactive) | 45.5 µM (inactive) | > 100 µM (inactive) | > 100 µM (inactive) | > 100 µM (inactive) | > 100 µM (inactive) | 63.4 µM (inactive) | 70.1 µM (inactive) | > 100 µM (inactive) | 34.3 µM (inactive) | > 100 µM (inactive)
